Legend:
[1] = Synovial fluid and serum drug concentrations after single i.a. injection in arthritic rabbits; conditions: rabbit, single 0.1 ml i.a. injection
Description: (§1) At 3-day intervals over a 3-week period, joint swelling (circumference) is assessed, synovial fluid samples (25 μl) are collected for analysis of salicylate and betamethasone concentrations, and venous blood samples (0.5 ml) are collected for analysis of salicylate and betamethasone serum concentrations and ovalbumin antibody titers. At the end of 3 weeks the animals are sacrificed for histological assessment of joint damage.
as §1, with “(circumference) was” for “(circumference) is”, “μl) were” for “μl) are”, “and lidocaine” for “and betamethasone”, “ml) were” for “ml) are”, “animals were” for “animals are”
as §1, with “morphine” for “betamethasone”
as §1, with “μl) were” for “μl) are”, “of salicylate, lidocaine,” for “of salicylate”, “and morphine” for “and betamethasone”

[2] = test system: experimental model of arthritis created by injecting ovalbumin into the knees of rabbits; assay: Ovalbumin-induced arthritis (chronic synovitis) in rabbit knees: joint swelling, ovalbumin antibody titers, histological joint damage; format: in vivo; conditions: compared to vehicle controls, during the 3-week period (Example 1)
Description: as §1
as §1, with “(circumference) was” for “(circumference) is”, “μl) were” for “μl) are”, “and lidocaine” for “and betamethasone”, “ml) were” for “ml) are”, “animals were” for “animals are”
as §1, with “morphine” for “betamethasone”, “damage. […]” for “damage.”

[3] = sampled at 3-day intervals over 3 weeks

## C[C@H]1C[C@H]2[C@@H]3CCC4=CC(=O)C=C[C@]4(C)[C@@]3(F)[C@@H](O)C[C@]2(C)[C@@]1(O)C(=O)COP(=O)([O-])[O-].[Na+].[Na+] [betamethasone, betamethasone sodium phosphate]
[1]; after the early time points
  betamethasone levels (synovial fluid and serum): undetectable
[1]; early time points
  betamethasone levels in serum: low
  betamethasone levels in synovial fluid: low
[2]
  joint swelling: significantly reduced
  serum ovalbumin antibody titers: significantly reduced

## CN1CC[C@]23c4c5ccc(O)c4O[C@H]2[C@@H](O)C=C[C@H]3[C@H]1C5.O=S(=O)(O)O [morphine, morphine sulfate]
[1]; [3]
  morphine serum levels: undetectable
  morphine synovial fluid levels: undetectable
